We go through five compounds from US11185511B2, “Antifungal topical composition and methods of treatment” (priority 2013, dated 2021).

Entries after “also recorded” stand apart in the source; their conditions may differ. Read-outs that look alike come from different tables or passages of the source. Bounds are passed on as bounds.

One data set deals with Candida albicans. Kind of data set: Chequerboard titration test (MIC, FICI) against clinical isolate of Candida albicans. The conditions noted are these: for Fold reduction in MIC of drug when combined with PHMB: FIG. 3; for MIC when combined with PHMB: MIC of the antifungal in combination with PHMB; for FICI / Type of interaction: antifungal combined with PHMB. It counts as cell-based. Here is the method:
(§1) In vitro susceptibility of a clinical isolate of Candida albicans, Saccharomyces cerevisiae NOD 24 and S cerevisiae EBY 100 to the combination of the antifungal agent and PHMB was assessed using chequerboard assay. Interaction between the drugs and PHMB, formation of nanoparticles and cellular uptake was also assessed.
(§2) Yeast inoculum was prepared by picking five colonies from 24 hrs grown culture in SGA and mixing in RPMI 1640 with MOPS. The optical density of the mixture was adjusted spectrophotometrically to 1 which is equivalent to 3×10^7 Colony Forming Units of yeast/mi. This suspension was further diluted in RPMI 1640 with MOPS to give final inoculum size of 0.5×10^4 CFU/ml.
(§3) Chequer board titration test was carried out in sterile 96-well plates as per CLSI recommended standard procedure to test the antifungal effect of drugs alone and in combination with PHMB. RPMI 1640 medium buffered with MOPS was used as test medium. Dilutions of drug was prepared the test medium if the stock was made in DMSO and in case of stocks made in water further dilutions of drug was in water itself. Tested concentrations were: nystatin 0.000039 mg/ml to 0.02 mg/ml, amphotericin B 0.032 mg/ml to 0.0000625 mg/ml, berberine 0.01 mg/ml to 0.00002 mg/ml, ketoconazole 0.032 mg/ml to 0.0000625 mg/ml and terbinafine 0.16 mg/ml to 0.00031 mg/ml. Growth control and sterility control was present in all plates. All the plates were prepared in triplicates.
(§4) The plates were sealed with paraffin foil to prevent evaporation and kept at 37° C. for C albicans and 30° C. for S cererevisiae. MIC was recorded visually, aided with Powerwave 340 universal microplate spectrophotometer (Biotek) after 24 hours for C albicans and S cerevisiae NOD 24. […] MIC was defined as the lowest concentration at which there is no visible growth. FICI was used to analyse the drug interactions in vitro and was calculated using the equation given below: […]

Data set [1] has as its system Saccharomyces cerevisiae NOD 24. Kind of data set: Chequerboard titration test (MIC, FICI) against Saccharomyces cerevisiae NOD 24. It counts as cell-based. The conditions noted are these: for Fold reduction in MIC of drug when combined with PHMB: S cerevisiae NOD 24, FIG. 2; for MIC when combined with PHMB: S cerevisiae NOD 24, MIC of the antifungal in combination with PHMB; for FICI / Type of interaction: S cerevisiae NOD 24, antifungal combined with PHMB; for MIC: Saccharomyces cerevisiae, NOD24. Here is the method:
as §1, §2, §3, §4

Data set [2] relates to Saccharomyces cerevisiae EBY 100. In words: Chequerboard titration test (MIC, FICI) against Saccharomyces cerevisiae EBY 100. Type of data set: cell-based. The conditions noted are these: for Fold reduction in MIC of drug when combined with PHMB: S cerevisiae EBY100, FIG. 1; for MIC when combined with PHMB: S cerevisiae EBY 100, MIC of the antifungal in combination with PHMB; for FICI / Type of interaction: S cerevisiae EBY 100, antifungal combined with PHMB; for MIC: Saccharomyces cerevisiae. Here is the method:
as §1, §2, §3, §4

Data set [3] in a line: Particle size by dynamic light scattering (DLS). It counts as physicochemical. The conditions noted are these: for Average size of particles (DLS): combined with PHMB in the ratio 1:3, PBS. Here is the method: Dynamic light scattering (DLS) was used to estimate size of complexes formed. It is based on the principle that by measuring scattered light from particles in motion their size can be determined. […] Particle size was determined using Zetasizer S (Malvern instruments, UK).

Data set [4] deals with Candida albicans, Saccharomyces cerevisiae NOD 24 and S cerevisiae EBY 100. The conditions noted are these: chequerboard assay, organism not specified. Here is the method:
as §1, §3, §4
Wilcoxon signed rank test was used to statistically analyse changes in MICs of antifungals when combined with PHMB. P value less than 0.05 was considered significant. Statistical analysis was done using SPPSS version 2.0 software.

The mark [5] stands for this setting: PHMB concentration when combined with the labelled drug.
Where [6] appears, read: RPMI 1640 with MOPS, 37° C., 24 hours.
[7] abbreviates: S cerevisiae NOD 24, PHMB concentration when combined with the labelled drug.
[8] abbreviates: S cerevisiae NOD 24, RPMI 1640 with MOPS, 30° C., 24 hours.
The mark [9] stands for this setting: S cerevisiae EBY 100, PHMB concentration when combined with the labelled drug.
Setting [10] is: S cerevisiae EBY 100, RPMI 1640 with MOPS, 30° C., 48 hours.
[11] abbreviates: combined with PHMB in the ratio 1:3.
The mark [12] stands for this setting: PHMB concentration when combined with the labelled drug, read-out: MIC of PHMB with antifungals.
Setting [13] is: S cerevisiae NOD 24, PHMB concentration when combined with the labelled drug, read-out: MIC of PHMB with antifungals.
[14] abbreviates: S cerevisiae NOD 24, RPMI 1640 with MOPS, 30° C., 24 hours, read-out: MIC of antifungals alone.
The mark [15] stands for this setting: EBY100, S cerevisiae EBY 100, RPMI 1640 with MOPS, 30° C., 48 hours, read-out: MIC of antifungals alone.
Where [16] appears, read: RPMI 1640 with MOPS, 37° C., 24 hours, read-out: MIC of antifungals alone.

Take `C[C@@H]1[C@H](O)[C@@H](C)/C=C/C=C/C=C/C=C/C=C/C=C/C=C/[C@H](O[C@@H]2O[C@H](C)[C@@H](O)[C@H](N)[C@@H]2O)C[C@@H]2O[C@](O)(C[C@@H](O)C[C@@H](O)[C@H](O)CC[C@@H](O)C[C@@H](O)CC(=O)O[C@H]1C)C[C@H](O)[C@H]2C(=O)O` [Amphotericin B]: the figures for the “Fold reduction in MIC of drug when combined with PHMB” value (“Fold reduction in MIC of drug” below) (in the data set on Candida albicans; in data set [1]; in data set [2]) were 2 fold, 16 fold and 4 fold, respectively. Besides, the “MIC when combined with PHMB” value with Candida albicans (37° C., 24 hours) is 0.5 µg/mL; in data set [1] (30° C., 24 hours), 0.25 µg/mL; in data set [2] (30° C., 48 hours), 4 µg/mL. Moreover, the “MIC of PHMB with antifungals” value is 0.031 µg/mL with Candida albicans (setting [5]), 0.5 µg/mL in data set [1] (setting [7]) and 0.5 µg/mL in data set [2] (setting [9]). Besides, the “MIC of antifungals alone” value in the data set with Candida albicans (setting [6]) amounted to 1 µg/mL; in data set [1] (setting [8]), 4 µg/mL; in data set [2] (setting [10]) it was 16 µg/mL. Moreover, the FICI stood at 0.53 in the data set on Candida albicans, 0.56 in data set [1] and 0.5 in data set [2]. For the same compound, the Type of interaction result with Candida albicans is reported as “No interaction (>0.5 but ≤4 is ‘no interaction’)”; in data set [1], “No interaction (>0.5 but ≤4 is ‘no interaction’)”; in data set [2], “Synergistic (FICI≤0.5 is ‘synergistic effect’)”; in data set [2] (listed as amphotericin B) it was “synergy”. In addition, the “Nanoparticles with PHMB observed or not (DLS)” value in data set [3] (setting [11]) is “Nanoparticles were not detected”. Besides, the “Interaction with PHMB (synergy), in words” value (shortened to “Interaction with PHMB”) in data set [4] was “Synergistic effect”.

For the compound `COc1ccc2cc3[n+](cc2c1OC)CCc1cc2c(cc1-3)OCO2` [Berberine], the “Fold reduction in MIC of drug” value in the data set on Candida albicans worked out at 2 fold; in data set [1] it was 16 fold; in data set [2], 2 fold. Besides, the “MIC when combined with PHMB” value turned out to be 31.25 µg/mL in the data set on Candida albicans (37° C., 24 hours); 0.56 µg/mL in data set [1] (30° C., 24 hours); 25 µg/mL in data set [2] (30° C., 48 hours). Moreover, the minimal inhibitory concentration (MIC) (in general, the smallest concentration in the dilution series that meets the test's criterion for growth inhibition) in the data set with Candida albicans (setting [12]) is 0.031 µg/mL; in data set [1] (setting [13]), 0.5 µg/mL; in data set [1] (setting [14]), 50 µg/mL; in data set [2] (EBY100, S cerevisiae EBY 100, PHMB concentration when combined with the labelled drug, read-out: MIC of PHMB with antifungals) it was 0.5 µg/mL; in data set [2] (setting [15]) it was 50 µg/mL. Further, the FICI is 0.53 in the data set with Candida albicans, 0.56 in data set [1] and 0.75 in data set [2]. Besides, the Type of interaction result (with Candida albicans; in data set [1]; in data set [2]) was “No interaction (>0.5 but ≤4 is ‘no interaction’)” each time. For the same compound, the “Share of particles around 22.2±1.5 nm” value in data set [3] (combined with PHMB 1:3) came out at 64.5%. Besides, in data set [3] (setting [11]), the “Nanoparticles with PHMB observed or not (DLS)” value is “Nanoparticles were observed”. Besides, the “Average size of particles (DLS)” value in data set [3] is 22.22±1.591 nm; in data set [3] (listed as berberine), “around 22.2±1.5 nm”.

With `CC(=O)N1CCN(c2ccc(OCC3COC(Cn4ccnc4)(c4ccc(Cl)cc4Cl)O3)cc2)CC1` (stereo not shown) [Ketoconazole], the “Fold reduction in MIC of drug” value (in the data set on Candida albicans; in data set [1]; in data set [2]) was 4 fold in each case. Besides, the “MIC when combined with PHMB” value worked out at 1 µg/mL with Candida albicans (37° C., 24 hours); 1 µg/mL in data set [1] (30° C., 24 hours); 0.31 µg/mL in data set [2] (30° C., 48 hours). The minimum inhibitory concentration (MIC) with Candida albicans (setting [12]) was 0.062 µg/mL; with Candida albicans (setting [16]) it was 4 µg/mL; in data set [1] (setting [13]), 0.5 µg/mL; in data set [1] (setting [14]) it was 16 µg/mL; in data set [2] (EBY100, 48 h, read-out: MIC of antifungals alone), 1.25 µg/mL. For the same compound, the FICI is given as 0.281 with Candida albicans, 0.5 in data set [1] and 0.263 in data set [2]. The Type of interaction entry (in the data set with Candida albicans; in data set [1]; in data set [2]) was “Synergistic (FICI≤0.5 is ‘synergistic effect’)” in each case. The Polydispersity index in data set [3] (combined with PHMB 1:3) is more than 1. For the same compound, the “Share of particles of size less than 10 nm” value in data set [3] (combined with PHMB 1:3) was “less than 10%”. The “Nanoparticles with PHMB observed or not (DLS)” value in data set [3] (setting [11]) is on record as “Nanoparticles were observed”. In addition, the “Peak 1 Average size (DLS)” value in data set [3] (setting [11]) was found to be 1.15±0.017. For the same compound, the “Peak 2 Average size (DLS)” value in data set [3] (setting [11]) is listed as 5.88±0.71. For the same compound, the “Peak 3 Average size (DLS)” value in data set [3] (setting [11]) was found to be 498.9±65.2. Besides, the “Interaction with PHMB” value in data set [4] is “Strong synergism; also recorded: Synergistic effect”.

For the compound `C[C@@H]1[C@H](O)[C@@H](C)/C=C/C=C/CC/C=C/C=C/C=C/C=C/C(O[C@H]2O[C@H](C)[C@@H](O)[C@H](N)[C@@H]2O)CC2O[C@](O)(CC(O)C(O)CCC(O)CC(O)CC(O)CC(=O)O[C@H]1C)CC(O)C2C(=O)O` (stereo partly shown) [Nystatin], the results for the “Fold reduction in MIC of drug” value (with Candida albicans; in data set [1]; in data set [2]) were 2 fold, 4 fold and 2 fold, respectively. Further, the “MIC when combined with PHMB” value came to 2.5 µg/mL in the data set with Candida albicans (37° C., 24 hours); 0.625 µg/mL in data set [1] (30° C., 24 hours); 2.5 µg/mL in data set [2] (30° C., 48 hours). In addition, the entries for the “MIC of PHMB with antifungals” value (in the data set with Candida albicans (setting [5]); in data set [1] (setting [7]); in data set [2] (setting [9])) were 0.5 µg/mL, 0.5 µg/mL and 0.062 µg/mL, respectively. For the same compound, the “MIC of antifungals alone” value with Candida albicans (setting [6]) was determined as 5 µg/mL; in data set [1] (setting [8]) it was 2.5 µg/mL; in data set [2] (setting [10]), 5 µg/mL. In addition, the FICI with Candida albicans is 1; in data set [1], 0.75; in data set [2], 0.53. The Type of interaction entry (with Candida albicans; in data set [1]; in data set [2]) was “No interaction (>0.5 but ≤4 is ‘no interaction’)” in each case. Besides, in data set [3] (setting [11]), the “Nanoparticles with PHMB observed or not (DLS)” value is recorded as “Nanoparticles were not detected”.

Take `CN(C/C=C/C#CC(C)(C)C)Cc1cccc2ccccc12` [Terbinafine]: the “Fold reduction in MIC of drug” value is 4 fold in the data set with Candida albicans, 16 fold in data set [1] and 8 fold in data set [2]. Moreover, the “MIC when combined with PHMB” value in the data set with Candida albicans (37° C., 24 hours) was 1 µg/mL; in data set [1] (30° C., 24 hours), 2.5 µg/mL; in data set [2] (30° C., 48 hours), 2.5 µg/mL. The MIC in the data set on Candida albicans (setting [12]) turned out to be 0.5 µg/mL; in the data set with Candida albicans (setting [16]) it was 4 µg/mL; in data set [1] (setting [13]), 0.062 µg/mL; in data set [1] (setting [14]) it was 4 µg/mL; in data set [2] (setting [15]), 20 µg/mL. The FICI in the data set on Candida albicans is given as 0.5; in data set [1], 0.312; in data set [2], 0.14. The Type of interaction result (in the data set on Candida albicans; in data set [1]; in data set [2]) was “Synergistic (FICI≤0.5 is ‘synergistic effect’)” each time. The “Interaction with PHMB” value in data set [4] was “Strong synergism; also recorded: Synergistic effect”.
